A short description of data set [1]: Pharmacokinetic analysis of NV-5297 in mice (i.v. and oral, LC-MS/MS). Conditions: C57BL/6 mice. In kind it is in vivo. Here is the method: […] Mice were given free access to food and water for both i.v. and orally dosed groups. After dosing, tail-vein blood was collected at the indicated time points into K2EDTA tubes and centrifuged at 2,000g for 5 minutes to collect serum. Levels of NV-5297 were quantified via LC-MS/MS. WinNonlin V 6.2 statistics software (Pharsight Corporation, California, USA) was used to generate pharmacokinetics parameters using non-compartmental model.
PK parameters of NV-5297 after an IV dose at 1 mg/kg
PK parameters Unit Estimate
PK parameters of NV-5297 after an OD dose at 5 mg/kg

The test system of data set [2] is mTORC1 pathway in striatum. In words: Chronic 6-week treatment: striatum immunoblots. In kind it is in vivo, N171-82Q mice. The text has this:
Animals were sacrificed by live decapitation one hour after the last oral dosing. Whole hearts were excised, blot-dried and weighed on an analytical balance. The heart was bisected transversely and the apical halves was preserved for cardiomyocyte and fibrosis staining. Left tibias were isolated and measured with an electronic caliper. The brain left hemisphere was preserved for MSN size measurement. The brain right hemisphere was microdissected and the medial pre-frontal cortex, striatum, cortex, hippocampus and cerebellum were collected.
Specific regions of the brain and heart were homogenized using a Next Advance Bullet Blender Storm in Lysis Buffer (Cell lysis buffer: 1% Triton X-100, 50 mM HEPES pH 7.4, 100 mM sodium chloride, 2 mM EDTA, 10 mM Beta-glycerophosphate, 10 mM Sodium pyrophosphate, and 1 protease inhibitor) at 4°C. Lysates were cleared by centrifugation at 13,200 rpm at 4°C for 10 minutes. Equal amounts of total protein from each sample were denatured and, resolved by SDS-PAGE. Membranes were imaged using the LI-COR imaging system. Proteins levels are normalized to tubulin, actin or GAPDH levels and further normalized to vehicle treated mice for each tissue.
Fig 3 Activation of the mTORC1 pathway in the striatum following daily oral dosing of NV-5297. (A) Representative immunoblots of the striatum for normalized phosphorylated S6 [^S240/244pS6], S6, phosphorylated Akt [^S437pAkt], Akt, phosphorylated mTOR [^S2448pmTOR], mTOR, DARPP-32, phosphorylated 4E-BP1 [^Thr37/46p4E-BP1], 4E-BP1 and Actin from homogenized striatum isolated from N171-82Q males after 6 weeks of daily oral dosing of NV-5297 (160 mg/kg) or vehicle [Veh]. (B) Quantification of the immunoblots from homogenized striatum isolated 1 hour after the final oral dosing with NV-5297 (160 mg/kg; n = 14) normalized to loading control levels and further normalized to vehicle treated mice (n = 15). A significant Spearman correlation is present between pS6/S6 and DARPP32 levels. Data are presented as mean ± SEM. *P ≤ 0.05, ***P ≤ 0.001, ****P ≤ 0.0001 (one-tailed unpaired Student’s t-test [pmTOR/mTOR, DARPP-32], with a Welch’s correction [pS6/S6, p4E-BP1/4E-BP1], Mann-Whitney test [pAkt/Akt].
Background: Immunoblotting shows a protein as a band on a membrane.

The next data set relates to N171-82Q HD mice. Briefly: Chronic 6-week treatment: striatal volume and MSN area (DARPP-32 histology). In kind it is in vivo. Conditions: N171-82Q mice, 160 mg/kg daily 6 weeks. As for the experimental part: Mice were perfused with PBS, and tissues were fixed in 4% paraformaldehyde for at least 48 hours. Brains were cryoprotected in a 30% sucrose solution for 24 hours and cryosectioned to 40 μm on a Leica SM2010R microtome. Each section through the striatum was collected and floated out in 30% ethylene glycol/15% sucrose solution sequentially in a 12-well plate. Once sections had been placed in each well, deeper sequential sections were added to wells in the same order, leading to each well containing 7 sections, 480 μm apart. Hearts were bisected transversely, and the apical halves were processed and embedded in paraffin. Heart tissue was sectioned to 5 μm on a Microm HM 355S (Thermo) microtome. […]
Striatal volume were estimated by the Cavalieri method on low-power digital images of DARPP-32-stained sections in ImageJ. A 5000 μm^2 area-per-point grid was superimposed randomly over the image, and number of points overlapping the striatum in each section (5 per animal) was counted. The volume was then calculated using the formula V = ∑p∙t∙A(p), where V = estimated volume, p = points per section, t = space between sections, and A(p) = area-per-point. […]
Average MSN area was calculated from high-power digital images of DARPP-32-stained sections in ImageJ. […] At least 700 cells were measured per brain, and the average MSN area was determined per treatment group.

The mark [3] stands for this setting: male, mouse, serum, IV dose at 1 mg/kg.
Where [4] appears, read: male, mouse, serum, OD (oral) dose at 5 mg/kg.
Setting [5] is: N171-82Q mice, 160 mg/kg daily 6 weeks.
The mark [6] stands for this setting: N171-82Q mice, 160 mg/kg daily 6 weeks, 1 hour after final dose.

Like-named read-outs stand apart in the source and are kept apart here.

By Cmax is commonly meant the peak of the concentration-time curve. The term AUC(0-inf) denotes total exposure, with the tail of the curve extrapolated. The AUC(0-t) is exposure summed from dosing to a finite time, without extrapolation to infinity. Read a high AUC(0-t) as more exposure. As a reminder, the MRT inf is a mean duration of stay, worked out from the concentration-time curve. In the case of `CC(C)(C[C@H](N)C(=O)O)C(F)(F)F` [NV-5297, (S)-2-amino-5,5,5-trifluoro-4,4-dimethylpentanoic acid], in data set [1] (OD (oral) dose at 5 mg/kg), the Cmax was 2893 ng/mL. The bioavailability in data set [1] (male, mouse, serum, po, 160 mg/kg, refers to S1 Table, read-out: oral bioavailability) was determined as 100%. In addition, the half-life in data set [1] (male, mouse, serum, oral, 160 mg/kg, refers to S1 Table, read-out: half-life (converted)) was roughly 3 h. Also, the Tmax in data set [1] (male, mouse, serum, oral, 160 mg/kg, refers to S1 Table, read-out: time to maximal concentration (tmax) (converted)) is 0.5 h. In data set [1] (setting [3]), this compound gave an AUC(0-inf) of 1240 ng·h/mL, an AUC(0-t) of 1220 ng·h/mL, a mean residence time MRT inf of 1.56 h and a clearance of 13.3 mL/min/kg. The half-life in data set [1] (male, mouse, serum, IV dose at 1 mg/kg, read-out: Terminal T1/2 (converted)) was 1.45 h. The Vd in data set [1] (male, mouse, serum, IV dose at 1 mg/kg, read-out: Vss) amounted to 1.26 L/kg. In addition, the bioavailability in data set [1] (male, mouse, serum, OD (oral) dose at 5 mg/kg vs IV 1 mg/kg, read-out: F (bioavailability)) worked out at 104%. In data set [1] (setting [4]), this compound showed an AUC(0-inf) of 6470 ng·h/mL and an AUC(0-t) of 6460 ng·h/mL. For the same compound, in data set [1] (male, mouse, serum, OD (oral) dose at 5 mg/kg, read-out: Terminal T1/2 (converted)), the half-life was 2.86 h. For the same compound, the Tmax in data set [1] (male, mouse, serum, OD (oral) dose at 5 mg/kg, read-out: Tmax) turned out to be 0.5 h. In addition, in data set [2] (setting [5]), the “striatal p4E-BP1/4E-BP1” value is given as “unchanged”, the “striatal pAkt/Akt” value is listed as “unchanged” and the “striatal pmTOR/mTOR” value is recorded as “unchanged”. For the same compound, in data set [2] (setting [6]), the “striatal DARPP-32” value is “significantly elevated” and the “striatal pS6” value is given as “significantly elevated”. Further, the “duration of mTORC1 pathway activation” value in data set [2] (NV-5297 daily treatment, response to reviewers) is reported as ~ 3 hours per day. Also, in the data set with N171-82Q HD mice, the “medium spiny neuron area” value was “no change” and the “striatal volume relative to vehicle” value was “significant increases”.

(Values after publication PMC9423655, “Huntington’s disease phenotypes are improved via mTORC1 modulation by small molecule therapy” (PLoS ONE, 2022).)
